Results: patent US11939300B2, “Compounds and methods for treating autoimmune disorders by targeting HLA-DQ2” (ImmunoMolecular Therapeutics, Inc., priority 2020, dated 2024)

System: HLA-DQ2
Assay: Inhibition of IL-2 secretion by TCR transductants stimulated by α-gliadin peptides presented by HLA-DQ2 expressing K562 cells (ELISA)
Type: cell-based, human
Details: for DQ2 IL2 Maximal % Inhibition: IL-2 secretion, at the concentration given in brackets; for concentration at which the compound exhibited maximum % inhibition (DQ2 IL2): from dose-response curve, figure in brackets in the cell
Experimental: Three commercially available analogues of the DQ2 binding molecules of the invention were tested for their ability to inhibit stimulation of T cell receptor (TCR) transductants in the presence of HLA-DQ2 expressing cells presenting known α-gliadin epitopes.
Using a previously published in vitro assay (Ostrov D, et al. Methyldopa blocks MHC class II binding to disease specific antigens in autoimmune diabetes. J Clin Invest. 2018:128(5)) we measured the ability of these DQ2 binding analogues to inhibit interleukin-2 (IL-2) secretion by TCR transductants stimulated by α-gliadin peptides presented by HLA-DQ2. Individual TCR transductants (recognizing α I-gliadin or α II-gliadin) were cultured with a gliadin peptide plus the small molecule analogues in the presence of HLA-DQ2 expressing K562 cells serving as antigen presenting cells. TCR transductants cultured with no gliadin peptide served as the negative control, and incubation with an anti-CD3 antibody (eBioscience; clone 2C11) served as a positive control for the TCR transductant. Secreted IL-2 in the culture supernatant was measured using a highly sensitive enzyme-linked immunosorbent assay (ELISA). […] Assays for effects on cell viability and for specificity, assayed in the absence of gliadin peptide or in the presence of a stimulating anti-CD3 antibody, were performed. A=71-100%; B=41-70%; C=11-40%; D=0-10%, NT=Not tested.

[1] = TCR transductants (α I- or α II-gliadin) + gliadin peptide + HLA-DQ2 K562 cells
[2] = Table 2, TCR transductants + gliadin peptide + HLA-DQ2 K562 cells

SMILES	DQ2 IL2 Maximal % Inhibition [1]	concentration at which the compound exhibited maximum % inhibition (DQ2 IL2)	DQ2 IL2 Maximal % Inhibition [2]	concentration at which the compound exhibited maximum % inhibition (DQ2 IL2) (Table 2)
CC(C)c1ccc(C(=O)NC2CCc3nn(C4CCOCC4)c(=O)cc3C2)cc1 (stereo not drawn) [Compound 55]	A (A=71-100%)	200 µM	–	–
CC(C)c1ccc(C(=O)NC2CCc3nn(C4CCC4)c(=O)cc3C2)cc1 (stereo not drawn) [Compound 56]	A (A=71-100%)	200 µM	–	–
CC(C)c1ccc(C(=O)NC2CCc3nn(CC(F)(F)F)c(=O)cc3C2)cc1 (stereo not drawn) [Compound 57, 4-isopropyl-N-(3-oxo-2-(2,2,2-trifluoroethyl)-2,3,5,6,7,8-hexahydrocinnolin-6-yl)benzamide]	A (A=71-100%)	200 µM	–	–
CC(C)c1ccc(C(=O)NC2CCc3nn(CC(C)(C)O)c(=O)cc3C2)cc1 (stereo not drawn) [Compound 58]	A (A=71-100%)	200 µM	–	–
CC(C)c1ccc(C(=O)NC2CCc3nn(C4CCCC4)c(=O)cc3C2)cc1 (stereo not drawn) [Compound 59]	A (A=71-100%)	200 µM	–	–
CCc1ccc(C(=O)NC2CCc3n[nH]c(=O)cc3C2)cc1 (stereo not drawn) [Compound 60]	–	–	A (A=71-100%)	200 µM
Cn1nc2c(cc1=O)CC(NC(=O)c1ccc3ccccc3n1)CC2 (stereo not drawn) [Compound 61]	–	–	A (A=71-100%)	200 µM
CC(C)Oc1ccc(C(=O)NC2CCc3nn(C)c(=O)cc3C2)cc1 (stereo not drawn) [Compound 62]	–	–	A (A=71-100%)	200 µM
Cn1nc2c(cc1=O)CC(NC(=O)c1cccc(C(F)(F)F)c1)CC2 (stereo not drawn) [Compound 63]	–	–	A (A=71-100%)	200 µM
